Data reported in ChEMBL document CHEMBL1201862, “PubChem BioAssay data set” (2004).
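All cell lines were grown in 96-well plates and treated with compound for 48 hours. The concentration for 50% growth inhibition is given as GI50.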 The source made the active and inactive calls. No stated cut-off is given here; in the data, active = GI50 up to about 1.1 µM and inactive = higher.

Tests used:
Assay in all cases: NCI-60 cell line screen, 48 h
[1] = test system: RXF 393
[2] = test system: SF-539
[3] = test system: RPMI-8226
[4] = test system: KM12
[5] = test system: T47D
[6] = test system: LOX IMVI
[7] = test system: 786-0
[8] = test system: NCI-H460
[9] = test system: SF-268
[10] = test system: SNB-75
[11] = test system: NCI-H226
[12] = test system: DU-145
[13] = test system: NCI/ADR-RES
[14] = test system: HCT-116
[15] = test system: MCF7
[16] = test system: U-251
[17] = test system: IGROV-1
[18] = test system: SF-295
[19] = test system: SN12C
[20] = test system: OVCAR-8
[21] = test system: Malme-3M
[22] = test system: NCI-H522
[23] = test system: ACHN
[24] = test system: OVCAR-4
[25] = test system: HCC 2998
[26] = test system: SR
[27] = test system: HOP-62
[28] = test system: HT-29
[29] = test system: BT-549
[30] = test system: M14
[31] = test system: OVCAR-5
[32] = test system: UACC-62
[33] = test system: A549
[34] = test system: MDA-MB-435
[35] = test system: CCRF-CEM
[36] = test system: NCI-H23
[37] = test system: SNB-19
[38] = test system: HL-60
[39] = test system: UO-31
[40] = test system: SK-MEL-2
[41] = test system: MDA-N
[42] = test system: HOP-92
[43] = test system: HCT-15
[44] = test system: K562
[45] = test system: SK-MEL-5
[46] = test system: SW-620
[47] = test system: Hs-578T
[48] = test system: PC-3
[49] = test system: CAKI-1
[50] = test system: SK-MEL-28
[51] = test system: MOLT-4
[52] = test system: OVCAR-3
[53] = test system: MDA-MB-231
[54] = test system: EKVX
[55] = test system: UACC-257
[56] = test system: A498
[57] = test system: COLO 205
[58] = test system: TK-10
[59] = test system: SK-OV-3

For `O=c1cc(-c2ccccc2)c2ccc(O)c(CN(CCCl)CCCl)c2o1`, the GI50 [1] was 14 µM (inactive), the GI50 [2] was 20.3 µM (inactive) and the GI50 [3] was 12.6 µM (inactive). For the same molecule, the GI50 [4] was 17.9 µM (inactive), the GI50 [5] was 23.4 µM (inactive) and the GI50 [6] was 8.26 µM (inactive). The GI50 [7] was 18.5 µM (inactive), the GI50 [8] was 17.8 µM (inactive) and the GI50 [9] was 17.5 µM (inactive). For the same molecule, the GI50 [10] was 15.7 µM (inactive), the GI50 [11] was 17.9 µM (inactive) and the GI50 [12] was 33.6 µM (inactive). For the same molecule, the GI50 [13] was 32.3 µM (inactive), the GI50 [14] was 19.1 µM (inactive) and the GI50 [15] was 17.2 µM (inactive). The GI50 [16] was 22.1 µM (inactive), the GI50 [17] was 15.5 µM (inactive) and the GI50 [18] was 11 µM (inactive). For the same molecule, the GI50 [19] was 17.2 µM (inactive), the GI50 [20] was 15.8 µM (inactive) and the GI50 [21] was 21 µM (inactive). For the same molecule, the GI50 [22] was 14.7 µM (inactive), the GI50 [23] was 20.4 µM (inactive) and the GI50 [24] was 34.8 µM (inactive). The GI50 [25] was 12.3 µM (inactive), the GI50 [26] was 11.1 µM (inactive) and the GI50 [27] was 17.2 µM (inactive). The GI50 [28] was 10.3 µM (inactive), the GI50 [29] was 10.6 µM (inactive) and the GI50 [30] was 20.1 µM (inactive). For the same molecule, the GI50 [31] was 17.8 µM (inactive), the GI50 [32] was 16.9 µM (inactive) and the GI50 [33] was 16.1 µM (inactive). The GI50 [34] was 19.9 µM (inactive), the GI50 [35] was 3.07 µM (inactive) and the GI50 [36] was 19.5 µM (inactive). For the same molecule, the GI50 [37] was 18.5 µM (inactive), the GI50 [38] was 13.4 µM (inactive) and the GI50 [39] was 14.4 µM (inactive). For the same molecule, the GI50 [40] was 22.8 µM (inactive), the GI50 [41] was 17.6 µM (inactive) and the GI50 [42] was 20.8 µM (inactive). For the same molecule, the GI50 [43] was 22.1 µM, the GI50 [44] was 29 µM (inactive) and the GI50 [45] was 16.9 µM (inactive). The GI50 [46] was 18.8 µM (inactive), the GI50 [47] was 24.9 µM (inactive) and the GI50 [48] was 17.8 µM (inactive). The GI50 [49] was 15.5 µM (inactive), the GI50 [50] was 18.8 µM (inactive) and the GI50 [51] was 5.75 µM (inactive). The GI50 [52] was 19.3 µM (inactive), the GI50 [53] was 15.7 µM (inactive) and the GI50 [54] was 25.5 µM (inactive). For the same molecule, the GI50 [55] was 16.4 µM (inactive), the GI50 [56] was 19.1 µM (inactive) and the GI50 [57] was 12.4 µM (inactive).

For `Nc1cc2c(nc3c4ccccc4c(N)cc3[n+]2-c2cccc3ccccc23)c2ccccc12.Nc1cc2c(nc3c4ccccc4ccc3[n+]2-c2cccc3ccccc23)c2ccccc12`, the GI50 [1] was 2.45 µM (inactive), the GI50 [2] was 7.74 µM (inactive) and the GI50 [3] was 0.146 µM (active). For the same molecule, the GI50 [4] was 1.31 µM (inactive), the GI50 [5] was 0.687 µM (active) and the GI50 [6] was 1.97 µM (inactive). The GI50 [7] was 1.21 µM (inactive), the GI50 [8] was 0.377 µM (active) and the GI50 [9] was 3.37 µM (inactive). For the same molecule, the GI50 [58] was 0.893 µM (active), the GI50 [59] was 4.32 µM (inactive) and the GI50 [10] was 1.68 µM (inactive). The GI50 [11] was 12.2 µM (inactive), the GI50 [12] was 3.03 µM (inactive) and the GI50 [13] was 8.18 µM (inactive). For the same molecule, the GI50 [14] was 1.67 µM (inactive), the GI50 [15] was 0.507 µM (active) and the GI50 [16] was 0.341 µM (active). The GI50 [17] was 1.71 µM (inactive), the GI50 [18] was 2.2 µM (inactive) and the GI50 [19] was 2.49 µM (inactive). The GI50 [20] was 0.714 µM (active), the GI50 [21] was 1.6 µM (inactive) and the GI50 [22] was 1.25 µM (inactive). The GI50 [23] was 2.18 µM (inactive), the GI50 [24] was 1.71 µM (inactive) and the GI50 [26] was 1.24 µM (inactive). For the same molecule, the GI50 [27] was 2.81 µM (inactive), the GI50 [28] was 1.36 µM (inactive) and the GI50 [29] was 4.11 µM (inactive). For the same molecule, the GI50 [30] was 2 µM (inactive), the GI50 [31] was 7.28 µM (inactive) and the GI50 [32] was 7.89 µM (inactive). For the same molecule, the GI50 [33] was 1.39 µM (inactive), the GI50 [34] was 1.45 µM (inactive) and the GI50 [35] was 0.229 µM (active). The GI50 [36] was 1.15 µM (inactive), the GI50 [37] was 4.56 µM (inactive) and the GI50 [38] was 1.41 µM (inactive). The GI50 [39] was 2.59 µM (inactive), the GI50 [40] was 1.57 µM (inactive) and the GI50 [41] was 1.87 µM (inactive). The GI50 [42] was 1.2 µM (inactive), the GI50 [43] was 2.97 µM and the GI50 [44] was 0.448 µM (active). For the same molecule, the GI50 [45] was 1.7 µM (inactive), the GI50 [46] was 1.55 µM (inactive) and the GI50 [47] was 1.17 µM (inactive). For the same molecule, the GI50 [48] was 0.465 µM (active), the GI50 [49] was 3.66 µM (inactive) and the GI50 [50] was 7.06 µM (inactive). For the same molecule, the GI50 [51] was 0.75 µM (active), the GI50 [52] was 0.593 µM (active) and the GI50 [53] was 0.276 µM (active). The GI50 [54] was 1.61 µM (inactive), the GI50 [55] was 1.15 µM (inactive) and the GI50 [56] was 3.48 µM (inactive). For the same molecule, the GI50 [57] was 1.93 µM (inactive).

`CC(=O)Nc1ccc(-c2nc3ccccc3s2)cc1I` was tested, and the GI50 [1] was 14.8 µM (inactive), the GI50 [2] was 14.3 µM (inactive) and the GI50 [3] was > 100 µM (inactive). For the same molecule, the GI50 [4] was 54 µM (inactive), the GI50 [5] was 1.85 µM (inactive) and the GI50 [6] was 24.8 µM (inactive). For the same molecule, the GI50 [7] was 18.5 µM (inactive), the GI50 [8] was 49.4 µM (inactive) and the GI50 [9] was 33.4 µM (inactive). For the same molecule, the GI50 [59] was 18.3 µM (inactive), the GI50 [10] was 24.2 µM (inactive) and the GI50 [11] was 7.96 µM (inactive). The GI50 [12] was 11 µM (inactive), the GI50 [13] was 42.3 µM (inactive) and the GI50 [14] was 1.16 µM (inactive). For the same molecule, the GI50 [15] was 0.0463 µM (active), the GI50 [16] was 25.1 µM (inactive) and the GI50 [17] was 0.0184 µM (active). The GI50 [18] was 29.4 µM (inactive), the GI50 [19] was 36.6 µM (inactive) and the GI50 [20] was 18.5 µM (inactive). For the same molecule, the GI50 [21] was 34.8 µM (inactive), the GI50 [22] was 42.2 µM (inactive) and the GI50 [23] was 26.5 µM (inactive). For the same molecule, the GI50 [24] was 8.79 µM (inactive), the GI50 [25] was 0.488 µM (active) and the GI50 [26] was > 100 µM (inactive). For the same molecule, the GI50 [27] was 15.6 µM (inactive), the GI50 [28] was > 65.6 µM (inactive) and the GI50 [29] was 25.5 µM (inactive). The GI50 [30] was 36.8 µM (inactive), the GI50 [32] was 22.6 µM (inactive) and the GI50 [33] was 45 µM (inactive). For the same molecule, the GI50 [34] was > 94.8 µM (inactive), the GI50 [35] was > 100 µM (inactive) and the GI50 [36] was 18 µM (inactive). For the same molecule, the GI50 [37] was 24.3 µM (inactive), the GI50 [38] was > 100 µM (inactive) and the GI50 [39] was 15.1 µM (inactive). The GI50 [40] was 50.4 µM (inactive), the GI50 [41] was > 100 µM (inactive) and the GI50 [42] was 26.4 µM (inactive). The GI50 [43] was over 83.4 µM, the GI50 [44] was > 58.1 µM (inactive) and the GI50 [45] was > 100 µM (inactive). For the same molecule, the GI50 [46] was > 100 µM (inactive), the GI50 [47] was 39.5 µM (inactive) and the GI50 [48] was 41.6 µM (inactive). For the same molecule, the GI50 [49] was 20 µM (inactive), the GI50 [50] was > 100 µM (inactive) and the GI50 [51] was > 100 µM (inactive). The GI50 [52] was 11.7 µM (inactive), the GI50 [53] was 17.5 µM (inactive) and the GI50 [54] was 7.87 µM (inactive). The GI50 [55] was > 100 µM (inactive), the GI50 [56] was 6.5 µM (inactive) and the GI50 [57] was 89.3 µM (inactive).
